Experimental data as given in US20230295133A1, “PROCESS FOR PREPARING A COMPOUND USEFUL TO TREAT MYCOSES” (PULMOCIDE LIMITED, priority 2014, published 2023).
Values after ≈ are worked out from the molar mass of the structure shown.

Key:
[1] = test system: aspergillus fumigatus (ATCC 13073 [strain: NIH 5233]); test: Survival of severely immunosuppressed neutropenic infected mice, monotherapy and combination; assay type: in vivo, A/J mice; conditions: Example 1 0.4 mg/mL (in); Posaconazole 1 mg/kg (po); once daily days 1-6
Protocol: On day 0, animals were infected intranasally with 35 µL of the spore suspension (1.67 × 10^8 spores/mL in physiological saline) of aspergillus fumigatus (ATCC 13073 [strain: NIH 5233]). Compound Example (I), prepared as a suspension in isotonic saline (0.4 mg/mL), was dosed once daily by an intra-nasal injection (35 µL/mouse) on days 1-6 after infection. Posaconazole (1 mg/kg) was given orally once daily on days 1-6 after infection. Body weight and survival were monitored daily up to day 7.

[2] = test system: Aspergillus fumigatus (NCPF2010) invasion; test: Aspergillus fumigatus infection of human alveoli bilayers (transwells), GM in lower chamber; assay type: cell-based; conditions: Posaconazole 0.01 µg/mL lower chamber
Protocol: In vitro models of human alveoli, consisting of a bilayer of human alveolar epithelial cells and endothelial cells, were prepared as previously described (Hope et al., 2007). This system allows administration of a test compound to the upper (“air” space) and/or lower (“systemic” space) compartments. This flexibility has been exploited to explore the effects of combination treatments by dosing compound Example 1 to the upper chamber and posaconazole or other anti-fungal agents to the lower chamber. Primary human pulmonary artery endothelial cells (HPAEC) were harvested and diluted to 10^6 cells/mL in EGM-2 media (Lonza, Basel, Switzerland). Transwells were inverted and the cell suspension (100 µL/well) was applied to the base of each transwell. The inverted transwells were incubated at RT within a flow hood for 2 hr after which they were turned upright. EGM-2 media was added to the lower (700 µL/well) and upper (100 µL/well) compartments and the transwells were incubated for 48 hr (37° C., 5% CO2). The EGM-2 media in the lower compartment was then replaced with fresh EGM-2 media. A549 cells were harvested and diluted to 5×10^5 cells/mL in 10% EBM, then added to the upper compartment (100 µL/well) of all transwells and the plates incubated for 72 hr (37° C., 5% CO2). Conidia of aspergillus fumigatus (the itraconazole sensitive strain NCPF2010 and the itraconazole resistant strain TR34-L98H) were cultured separately in Sabouraud dextrose agar for 3 days. A stock conidia suspension of either strain was prepared from a Sabouraud dextrose agar culture by washing with PBS-tween (10 mL; PBS containing 0.05% Tween-20, 100 U/mL Penicillin and 100 U/mL Streptomycin). The conidia count was assessed using a Neubauer haemocytometer and adjusted to 10^6 conidia/mL with PBS. A working stock of conidia was prepared in EBM (conc of 10^5 conidia/mL) immediately prior to use.
Test and reference compounds (or neat DMSO as the vehicle) were added to the appropriate wells of 24-well plates (3 µL/well containing 600 µL of 2% FBS EBM) for lower compartment treatment and to 96-well plates (1 µL/well containing 200 µL of 2% FBS EBM) for the treatment of the upper compartment, to provide a final DMSO concentration of 0.5%. The media in the upper compartment was aspirated and that containing the appropriate test and reference compounds, or vehicle, were added (100 µL/well). Transwells were then transferred into the 24-well plate containing the test and reference compounds or DMSO vehicle. After incubation for 1 hr (35° C., 5% CO2) the conidia suspension (10 µL/well) was added to the upper compartment of each transwell. Plates were then incubated for 24 hr (35° C., 5% CO2). Supernatants from each compartment (5 µL/compartment) were collected and stored (-20° C.). Media was replaced daily after collection of the supernatants and all wells were treated with test and reference compounds or with DMSO, as described above, for 3 days. Samples continued to be collected until fungal growth was visible by eye in all transwells. The levels of GM in the supernatant in lower compartment were then measured by ELISA (BioRad, CA, USA) as an index of aspergillus fumigatus invasion.

[3] = test system: Chaectomium globosum ATCC44699; test: Fungus panel screening, CLSI broth microdilution; assay type: cell-based
Protocol: Fungus panel screening was conducted by Eurofins Panlabs Inc. The MIC and MIC50 values of the test articles were determined following the guidelines of the Clinical and Laboratory Standards Institute, broth microdilution methods for yeast (CLSI M27-A2), (CLSI, 2002) and for filamentous fungi (CLSI M38-A), (CLSI, 2008).

[4] = test system: aspergillus fumigatus (ATCC 13073 [strain: NIH 5233]); test: In vivo anti-fungal activity, prophylactic and therapeutic treatment of infected immunocompromised neutropenic mice; set-up: species or system A/J mice; conditions: for Cell numbers in BALF, Macrophage / Cell numbers in BALF, Neutrophil / TNFα conc in serum: mean ± SEM
[5] = treatment day 1, Example 1 0.1 µg/mL upper chamber
[6] = treatment day 6, Example 1 0.1 µg/mL upper chamber
[7] = prophylactic treatment (days 0, 1, 2 and 3), 0.4 mg/mL
[8] = prophylactic treatment, 0.08 mg/mL
[9] = prophylactic treatment, 0.4 mg/mL
[10] = prophylactic treatment, 2 mg/mL
[11] = therapeutic treatment (days 1, 2 and 3), 0.4 mg/mL
[12] = therapeutic treatment, 0.4 mg/mL
[13] = therapeutic treatment, 10 mg/mL

**Q.** Cc1cc(N2CCN(c3ccc(C(=O)Nc4ccc(F)cc4)cc3)CC2)ccc1OC[C@@H]1CO[C@@](Cn2cncn2)(c2ccc(F)cc2F)C1 [Example 1, 4-(4-(4-(((3R,5R)-5-((1H-1,2,4-Triazol-1-yl)Methyl)-5-(2,4-Difluorophenyl)Tetra Hydrofuran-3-yl)Methoxy)-3-Methylphenyl)Piperazin-1-yl)-N-(4-Fluorophenyl) Benzamide] was tested. Which Median survival [1] did it give?
**A.** 6 days

**Q.** What about the “No. of survivors on day 7” value [1] of the same compound?
**A.** 0/6

**Q.** What about the “Survivors on day 7 (%)” value [1] of the same compound?
**A.** 0%

**Q.** And the “GM Levels in the Lower Chamber, OD value” ([2]; treatment day 0, Example 1 0.1 µg/mL upper chamber)?
**A.** 0 OD

**Q.** What about the “GM Levels in the Lower Chamber, % inhibition vs. control” value [2, 5] of the same compound?
**A.** 86%

**Q.** What about the “GM Levels in the Lower Chamber, OD value” [2, 5] of the same compound?
**A.** 0.091 OD

**Q.** And the “GM Levels in the Lower Chamber, % inhibition vs. control” value ([2]; treatment day 2, Example 1 0.1 µg/mL upper chamber)?
**A.** 3.4%

**Q.** And the “GM Levels in the Lower Chamber, % inhibition vs. control” value ([2]; treatment day 3, Example 1 0.1 µg/mL upper chamber)?
**A.** 3.7%

**Q.** And the “GM Levels in the Lower Chamber, % inhibition vs. control” value ([2]; treatment day 4, Example 1 0.1 µg/mL upper chamber)?
**A.** 4.5%

**Q.** What about the “GM Levels in the Lower Chamber, % inhibition vs. control” value ([2]; treatment day 5, Example 1 0.1 µg/mL upper chamber) of the same compound?
**A.** 0.3%

**Q.** What about the “GM Levels in the Lower Chamber, % inhibition vs. control” value [2, 6] of the same compound?
**A.** -0.3%

**Q.** And the “GM Levels in the Lower Chamber, OD value” [2, 6]?
**A.** 1.18 OD

**Q.** And the “GM Levels in the Lower Chamber, % inhibition vs. control” value ([2]; treatment day 7, Example 1 0.1 µg/mL upper chamber)?
**A.** 0.9%

**Q.** And the “GM Levels in the Lower Chamber, % inhibition vs. control” value ([2]; treatment day 8, Example 1 0.1 µg/mL upper chamber)?
**A.** 2.8%

**Q.** What about the MIC50 ([3]; 50% inhibition by visual inspection (CLSI)) of the same compound?
**A.** 0.063 µg/mL (≈ 0.0923 µM)

**Q.** What about the MIC ([3]; 100% inhibition by visual inspection (CLSI), read-out: MIC100) of the same compound?
**A.** > 8 µg/mL

**Q.** And the “% Inhibition versus Infected Controls, GM in BALF” value [4, 7]?
**A.** 92%

**Q.** And the “% Inhibition versus Infected Controls, GM in serum” value [4, 7]?
**A.** 95%

**Q.** And the “% Inhibition versus Infected Controls, Lung Fungal Load” value [4, 7]?
**A.** 81%

**Q.** What about the “Macrophage in BALF, % inhibition” value [4, 8] of the same compound?
**A.** 38%

**Q.** What about the “Neutrophil in BALF, % inhibition” value [4, 8] of the same compound?
**A.** 24%

**Q.** And the “Cell numbers in BALF, Macrophage” value [4, 8]?
**A.** 0.40 ± 0.15 ×10^5/mL

**Q.** And the “Cell numbers in BALF, Neutrophil” value [4, 8]?
**A.** 0.37 ± 0.04 ×10^5/mL

**Q.** What about the “Macrophage in BALF, % inhibition” value [4, 9] of the same compound?
**A.** 51%

**Q.** What about the “Neutrophil in BALF, % inhibition” value [4, 9] of the same compound?
**A.** 47%

**Q.** What about the “Cell numbers in BALF, Macrophage” value [4, 9] of the same compound?
**A.** 0.32 ± 0.07 ×10^5/mL

**Q.** What about the “Cell numbers in BALF, Neutrophil” value [4, 9] of the same compound?
**A.** 0.26 ± 0.12 ×10^5/mL

**Q.** What about the “TNFα conc in serum” value [4, 9] of the same compound?
**A.** 7.3 ± 3.5 pg/mL

**Q.** What about the “Macrophage in BALF, % inhibition” value [4, 10] of the same compound?
**A.** 60%

**Q.** And the “Neutrophil in BALF, % inhibition” value [4, 10]?
**A.** 55%

**Q.** And the “Cell numbers in BALF, Macrophage” value [4, 10]?
**A.** 0.26 ± 0.05 ×10^5/mL

**Q.** What about the “Cell numbers in BALF, Neutrophil” value [4, 10] of the same compound?
**A.** 0.22 ± 0.04 ×10^5/mL

**Q.** And the “TNFα conc in serum” value [4, 10]?
**A.** 4.7 ± 0.4 pg/mL

**Q.** And the “% Inhibition versus Infected Control, GM in BALF” value [4, 11]?
**A.** 94%

**Q.** What about the “% Inhibition versus Infected Control, GM in serum” value [4, 11] of the same compound?
**A.** 91%

**Q.** And the “% Inhibition versus Infected Control, Lung Fungal Load” value [4, 11]?
**A.** 97%

**Q.** And the “Macrophage in BALF, % inhibition” value [4, 12]?
**A.** 34%

**Q.** And the “Neutrophil in BALF, % inhibition” value [4, 12]?
**A.** 22%

**Q.** And the “Cell numbers in BALF, Macrophage” value [4, 12]?
**A.** 0.43 ± 0.05 ×10^5/mL

**Q.** What about the “Cell numbers in BALF, Neutrophil” value [4, 12] of the same compound?
**A.** 0.38 ± 0.04 ×10^5/mL

**Q.** What about the “TNFα conc in serum” value [4, 12] of the same compound?
**A.** 6.2 ± 0.5 pg/mL

**Q.** What about the “Macrophage in BALF, % inhibition” value ([4]; therapeutic treatment, 2 mg/mL) of the same compound?
**A.** 38%

**Q.** And the “Neutrophil in BALF, % inhibition” value ([4]; therapeutic treatment, 2 mg/mL)?
**A.** 31%

**Q.** What about the “Cell numbers in BALF, Macrophage” value ([4]; therapeutic treatment, 2 mg/mL) of the same compound?
**A.** 0.40 ± 0.11 ×10^5/mL

**Q.** What about the “Cell numbers in BALF, Neutrophil” value ([4]; therapeutic treatment, 2 mg/mL) of the same compound?
**A.** 0.34 ± 0.05 ×10^5/mL

**Q.** And the “TNFα conc in serum” value ([4]; therapeutic treatment, 2 mg/mL)?
**A.** 5.5 ± 0.7 pg/mL

**Q.** And the “Macrophage in BALF, % inhibition” value [4, 13]?
**A.** 51%

**Q.** What about the “Neutrophil in BALF, % inhibition” value [4, 13] of the same compound?
**A.** 45%

**Q.** And the “Cell numbers in BALF, Macrophage” value [4, 13]?
**A.** 0.32 ± 0.07 ×10^5/mL

**Q.** What about the “Cell numbers in BALF, Neutrophil” value [4, 13] of the same compound?
**A.** 0.27 ± 0.08 ×10^5/mL

**Q.** What about the “TNFα conc in serum” value [4, 13] of the same compound?
**A.** 4.9 ± 0.6 pg/mL
